From patent EP0353827A2, “New immunosuppressant-producing culture” (MERCK & CO. INC., priority 1988, dated 1990)

System: mouse T lymphocytes stimulated with the combination of ionomycin plus PMA
Experiment: T-cell proliferation assay (ionomycin plus PMA induced T-cell stimulation, tritiated thymidine uptake)
Format: cell-based
Details: for immunosuppressive activity, inhibition of T-cell activation: qualitative statement
Source text: The principle of this assay is to measure the proliferation of mouse T lymphocytes stimulated with the combination of ionomycin plus PMA. A positive sample in this assay will inhibit T-cell proliferation, as indicated by reduced tritiated thymidine uptake.
Spleens from C57B1/6 mice were taken under sterile conditions and gently dissociated in ice-cold RPMI 1640 culture medium (GIBCO, Grand Island, N.Y.) supplemented with 10% heat-inactivated fetal calf serum (GIBCO). Cells were pelleted by centrifugation at 1500 rpm for 8 minutes. Contaminating red cells were removed by treating the pellet with ammonium chloride lysing buffer (GIBCO) for 2 minutes at 4°C. Cold medium was added and cells were again centrifuged at 1500 rpm for 8 minutes. T lymphocytes were then isolated by separation of the cell suspension on nylon wool columns as follows: Nylon wool columns were prepared by packing approximately 4 grams of washed and dried nylon wool into 20 ml plastic syringes. The columns were sterilized by autoclaving at 250°F for 30 minutes. Nylon wool columns were wetted with warm (37°C) culture medium and rinsed with the same medium. Washed spleen cells resuspended in warm medium were slowly applied to the nylon wool. The columns were then incubated in an upright position at 37°C for 1 hour. Non-adherent T lymphocytes were eluted from the columns with warm culture medium and the cell suspensions were spun as above.
Purified T lymphocytes were resuspended at 2.5 x 10⁵ cells/ml in complete culture medium composed of RPMI 1640 medium with 10% heat-inactivated fetal calf serum, 100 mM glutamine, 1 mM sodium pyruvate, 2 x 10⁻⁵ M 2-mercaptoethanol and 50 µg/ml gentamycin. Ionomycin was added at 250 ng/ml and PMA at 10 ng/ml. The cell suspension was immediately distributed into 96 well flat-bottom microculture plates (Costar) at 200 µl/well. […] L-679,934 was used as a standard. The culture plates were then incubated at 37°C in a humidified atmosphere of 5% CO₂-95% air for 44 hours. The proliferation of T lymphocytes was assessed by measurement of tritiated thymidine incorporation. After 44 hours of culturing, the cells were pulse-labelled with 2 µCi/well of tritiated thymidine (NEN, Cambridge, MA). After another 4 hours of incubation, cultures were harvested on glass fiber filters using a multiple sample harvester. Radioactivity of filter discs corresponding to individual wells was measured by standard liquid scintillation counting methods (Betacounter). Mean counts per minute of replicate wells were calculated and the results expressed as percent inhibition of tritiated thymidine uptake (proliferation) as follows: [formula]
Purified T lymphocytes were resuspended at 2.5 x 10⁵ cells/ml in complete culture medium composed of RPMI 1640 medium with 10% heat-inactivated fetal calf serum, 100 mM glutamine, 1 mM sodium pyruvate, 2 x 10⁻⁵ M 2-mercaptoethanol and 50 µg/ml gentamycin. Ionomycin was added at 250 ng/ml and PMA at 10 ng/ml. The cell suspension was immediately distributed into 96 well flat-bottom microculture plates (Costar) at 200 µl/well. […] L-679,934 was used as a standard. The culture plates were then incubated at 37°C in a humidified atmosphere of 5% CO₂-95% air for 44 hours. The proliferation of T lymphocytes was assessed by measurement of tritiated thymidine incorporation. After 44 hours of culturing, the cells were pulse-labelled with 2 µCi/well of tritiated thymidine (NEN, Cambridge, MA). After another 4 hours of incubation, cultures were harvested on glass fiber filters using a multiple sample harvester.

SMILES	inhibition at 0.01 µg/mL (Mus musculus, T-lymphocyte, 10 ng/ml, ³H-thymidine pulse 4 hours, harvest at 48 hours) [%]	% Inhibition (0.6 ng/ml, ³H-thymidine pulse 4 hours, harvest at 48 hours) [%]	% Inhibition (0.9 ng/ml, ³H-thymidine pulse 4 hours, harvest at 48 hours) [%]	% Inhibition (1.3 ng/ml, ³H-thymidine pulse 4 hours, harvest at 48 hours) [%]	% Inhibition (1.9 ng/ml, ³H-thymidine pulse 4 hours, harvest at 48 hours) [%]	% Inhibition (2.9 ng/ml, ³H-thymidine pulse 4 hours, harvest at 48 hours) [%]	% Inhibition (4.4 ng/ml, ³H-thymidine pulse 4 hours, harvest at 48 hours) [%]	% Inhibition (6.6 ng/ml, ³H-thymidine pulse 4 hours, harvest at 48 hours) [%]	% Inhibition (10 ng/ml, ³H-thymidine pulse 4 hours, harvest at 48 hours) [%]	immunosuppressive activity, inhibition of T-cell activation	% Inhibition (0.29 ng/ml, ³H-thymidine pulse 4 hours, harvest at 48 hours) [%]	% Inhibition (0.44 ng/ml, ³H-thymidine pulse 4 hours, harvest at 48 hours) [%]	% Inhibition (0.66 ng/ml, ³H-thymidine pulse 4 hours, harvest at 48 hours) [%]	% Inhibition (0.99 ng/ml, ³H-thymidine pulse 4 hours, harvest at 48 hours) [%]	% Inhibition (1.5 ng/ml, ³H-thymidine pulse 4 hours, harvest at 48 hours) [%]	% Inhibition (2.2 ng/ml, ³H-thymidine pulse 4 hours, harvest at 48 hours) [%]	% Inhibition (3.3 ng/ml, ³H-thymidine pulse 4 hours, harvest at 48 hours) [%]	% Inhibition (5 ng/ml, ³H-thymidine pulse 4 hours, harvest at 48 hours) [%]
C=CC[C@@H]1/C=C(\C)C[C@H](C)C[C@H](OC)[C@H]2O[C@@](O)(C(=O)C(=O)N3CCCC[C@H]3C(=O)O[C@H](/C(C)=C/[C@@H]3CC[C@@H](O)[C@H](OC)C3)[C@H](C)[C@@H](O)CC1=O)[C@H](C)C[C@@H]2OC [L-679,934, reference compound]	99																	
CC[C@@H]1/C=C(\C)C[C@H](C)C[C@H](OC)[C@H]2O[C@@](O)(C(=O)C(=O)N3CCCC[C@H]3C(=O)O[C@H](/C(C)=C/[C@@H]3CC[C@@H](O)[C@H](O)C3)[C@H](C)[C@@H](O)CC1=O)[C@H](C)C[C@@H]2OC [demethimmunomycin, 31-desmethoxy-31-hydroxy-L-683,590]		0	9.0	38.2	72.1	86.3	91.9	97.9	98.6	positive inhibition of T-cell activation								
C=CC[C@@H]1/C=C(\C)C[C@H](C)C[C@H](OC)[C@H]2O[C@@](O)(C(=O)C(=O)N3CCCC[C@H]3C(=O)O[C@H](/C(C)=C/[C@@H]3CC[C@@H](O)[C@H](O)C3)[C@H](C)[C@@H](O)CC1=O)[C@H](C)C[C@@H]2OC [demethomycin, 31-desmethoxy-31-hydroxy-L-679,934]										positive inhibition of T-cell activation	0	0	36.8	67.1	80.5	92.9	97.2	98.1
